Consider 14 molecules from patent publication US6696436B1, “B-homoestra-1,3,5(10)-trienes as modulators of tubulin polymerization” (The United States of America as represented by the …, priority 1999, dated 2004).

Data set [1] has as its system T1, tubulin.
T1 construct: Activity in room temperature assay; other: no polymerization in the absence of drug; other: GTP-only system, critical concentrations
Briefly: Enhancement of glutamate- or MAP-induced tubulin assembly, turbidimetric curves (FIGS. 4 and 5). It counts as biochemical. The note with it: for Effect on MAP-induced tubulin assembly: 0.75 mg/ml MAPs, 1.0 mg/ml tubulin, 25° C. Here is the method:
In those cases where acceleration of tubulin polymerization is observed, an IC50 value for inhibition of polymerization is of course not derivable. Results for such compounds may be presented in the form of turbidimetric curves, e.g. as presented in FIGS. 4 and 5 for representative compounds 13 and 18.
FIG. 4: Each reaction mixture contained 0.8 M glutamate (pH 6.6), 0.4 mM GTP, 12 μM (1.2 mg/ml) tubulin, 4% (v/v) dimethyl sulfoxide, and compound 13 or 18 as indicated. Baselines were established at 0°, and at time zero the temperature controller was set at 26°. At the time indicated by the dashed line, the temperature controller was set at 0°. A. Curve 1, no drug; curve 2, 2 μM compound 13; curve 3, 5 μM 7; curve 4, 10 μM 7; curve 5, 40 μM 7; curve 6, 40 μM 14. B. Curve 1, no drug; curve 2, 2 μM compound 18; curve 3, 5 μM 18; curve 4, 10 μM 18; curve 5, 40 μM 18.
FIG. 5: Each reaction mixture contained 0.1 M Mes (pH 6.9 with NaOH in 0.5 M stock solution), 0.1 mM GTP, 10 μM (1.0 mg/ml) tubulin, 0.75 mg/ml heat-treated MAPs, 4% dimethyl sulfoxide, and drug as indicated. […] There was no change in turbidity in any reaction mixture. At this point the temperature controller was set at 10°, and subsequent temperature changes, as indicated, were made at the times indicated by the vertical dashed lines. Curve 1, no drug; curve 2, 10 μM paclitaxel; curve 3, 10 μM compound 13; curve 4, 20 μM 7; curve 5, 40 μM 7; curve 6, 10 μM compound 18.

Data set [2] concerns T1, tubulin. Briefly: Critical concentration of tubulin for assembly, turbidimetric (FIG. 6). In kind it is biochemical. As to the method: FIG. 6 presents critical concentrations, obtained at 30° C., of tubulin with paclitaxel and compound 13. A: MAPs -and GTP-dependent assembly without drug and in the presence of 10 μM paclitaxel or 10 μM 13. B: GTP-dependent, MAP-independent assembly with 10 μM paclitaxel or 10 μM 13.
Measurement of the critical concentration with and without MAPs with paclitaxel, and again with 13, was therefore carried out to provide some idea of the comparative activity of these agents. The data are presented in FIG. 6, which yield critical concentrations, obtained at 30° C., of 1.4, 0.06, and 0.50 mg/ml for MAP-and GTP-dependent assembly without drug and in the presence of 10 μM paclitaxel or 10 μM 13, respectively, and 0.20 and 1.4 mg/ml for GTP-dependent, MAP-independent assembly with 10 μM paclitaxel or 10 μM 13. […] (A constant weight ratio of MAPs to tubulin of 1:3 was used, because the suboptimal concentration of MAPs caused greater differences in the critical concentrations obtained.) Reaction mixtures (0.25 ml) contained 0.1 M Mes (pH 6.9), 100 μM GTP, 4% dimethyl sulfoxide, the indicated tubulin concentration (with heat-treated MAPs in 1:3 weight ratio to the tubulin, panel A only), and either 10 μM paclitaxel (▴), 10 μM compound 13 (◯), or no drug (▾). Cuvette contents were equilibrated at 0°, drugs were added, temperature was jumped to 30° (about one min), and the turbidity changes after a 20 min incubation measured.

The subject of data set [3] is T1, tubulin. Briefly: Polymer morphology by electron microscopy. The note with it: 40 μM 13 or 10 μM paclitaxel. It counts as biochemical. The text has this:
It was possible that compounds 13 and 18 were not actually acting like paclitaxel in enhancing microtubule assembly and in stabilizing the microtubules formed in the course of the turbidity studies shown in FIG. 4, but that these agents were causing formation of polymers of aberrant morphology and temperature stability different from microtubules, such as occurs with vinca alkaloids. Polymer morphology was examined by electron microscopy. […] Even more important, when the reaction mixtures were returned to 0° C. for 15 min, no microtubules were visualized on grids prepared from the reaction mixture without drug.

Data set [4] has as its system T1, tubulin. The data set is described as follows: Enhancement of glutamate- or MAP-induced tubulin assembly, turbidimetric curves (FIGS. 4 and 5). It counts as biochemical.
Data set [5] has as its system T1, tubulin. Briefly: Tubulin polymerization inhibition in vitro (turbidity at 350 nm). In kind it is biochemical. More on the design: key: *: Accelerates tubulin polymerization. The note with it: no IC50 derivable.
Data set [6] relates to T2, tubulin.
T2 construct: other: 1.0 M glutamate, 10 μM tubulin; Effect on tubulin polymerization / microtubule assembly
The description is as above. It counts as biochemical. To be noted: for IC50: 1.0 M glutamate, 10 μM tubulin. Here is the method: Microtubule assembly is followed in a temperature controlled recording spectrophotometer. For details and a discussion, see R. D'Amato et al., Proc Natl Acad Sci USA, 91:3964-3968 (1994).
A typical reaction mixture, which will have a final reaction volume of […], contains 1.0 M monosodium glutamate (pH 6.6), 1.0 mg/ml (10 μM) tubulin, 1.0 MM MgCl2, 4% (v/v) dimethylsulfoxide, and a compound to be tested at the desired concentration (typically 0.1 to 100 μM). The reaction mixtures are incubated for 15 min. at 37° C. and then chilled on ice. After addition of 10 μl 12.5 mM GTP (and, optionally, 0.33 mg/ml microtubule-associated proteins, or MAPs) to initiate polymerization, each reaction mixture is transferred to a cuvette at 0° C., and a baseline established. At time zero, the temperature controller of the spectrophotometer is set to a target temperature, typically between 25 and 37° C. Microtubule assembly is monitored by observing an increase in turbidity at 350 nm as the temperature of the reaction mixture rises to the set target temperature.
The results are presented in Table 1 as IC50 values (μM) for inhibition of tubulin polymerization. Alternatively, inhibition of microtubule assembly can be detected by transmission electron microscopy, as described in U.S. Pat. No. 5,504,074 which is hereby incorporated by reference in its entirety.

For data set [7], the system named is tumor cells. Briefly: Inhibition of cell growth in the NCI Developmental Therapeutics Program tumor cell screen. It counts as cell-based. To be noted: mean graph midpoint for all cell lines tested. Here is the method: The compounds of the invention were tested for inhibition of cell growth in the established tumor cell screen of the National Cancer Institute Developmental Therapeutics Program. See Boyd et al., Drug Dev. Res., 34:91-109 (1995). Results are presented in Table 1 as the “MGM” values (mean graph midpoint, in μM, for all cell lines tested).

What is called IC50 is the concentration at which inhibition is half-maximal. One may read the melting point as the temperature, or range, at which the solid turns liquid.

Molecules are shown by their SMILES. Entries after “also recorded” stand apart in the source; their conditions may differ. Some results are limits rather than exact numbers.

Turning to `CC(=O)O[C@H]1C(=O)[C@@]2(C)[C@H]([C@H](OC(=O)c3ccccc3)[C@]3(O)C[C@H](OC(=O)[C@H](O)[C@@H](NC(=O)c4ccccc4)c4ccccc4)C(C)=C1C3(C)C)[C@]1(OC(C)=O)CO[C@@H]1C[C@@H]2O` [paclitaxel, Paclitaxel, reference compound], in data set [1], the “Effect on MAP-induced tubulin assembly” value is reported as “much more extensive than that with compound 13”. Besides, the “Critical concentration of tubulin, MAP- and GTP-dependent assembly” value in data set [2] (30° C., 10 μM drug, MAPs:tubulin 1:3 by weight) worked out at 0.06 mg/mL. Also, in data set [2] (30° C., 10 μM drug, no MAPs), the “Critical concentration of tubulin, GTP-dependent, MAP-independent assembly” value worked out at 0.20 mg/mL. The “Affinity for tubulin polymers relative to compound 13” value in data set [2] (from critical concentrations) is 7-8 fold. Besides, the “Cold stable microtubules after return to 0° C. for 15 min” value in data set [3] was “abundant cold stable microtubules were observed”. In addition, in data set [4] (10 μM tubulin, 40 μM compound 13 or 10 μM paclitaxel), the “Assembly reaction when either MAPs or GTP was omitted” value is given as “a reaction was observed in both cases”.
Consider `CCOc1cc2c(cc1O)C(=O)CC[C@@H]1[C@@H]2CC[C@]2(C)[C@@H](OC(C)=O)CC[C@@H]12` [Compound 18, B-Homo-17β-acetoxy-2-ethoxy-3-hydroxyestra-1,3,5(10)-trien-6-one], for which, in data set [1], the “Effect on glutamate- and MAP-induced tubulin assembly” value was “activity was largely retained”; the “Effect on MAP-induced tubulin assembly” value is given as “enhanced tubulin assembly; also recorded: less stimulatory than 13; also recorded: significantly less than that of paclitaxel”. For the same molecule, in data set [5], the “Tubulin polymerization inhibition, symbol instead of IC50” value is recorded as “*”. In data set [6], the “Effect on tubulin polymerization / microtubule assembly” value is “stimulate microtubule assembly”. Further, the “Tubulin assembly in the absence of GTP” value in data set [4] is “has not been observed”.
Take `CCOc1cc2c(cc1O)N(CC)CCC1C2CCC2(C)C(O)CCC12` (stereo not drawn) [Compound 33, B-Homo-6-aza-2-ethoxy-6-ethylestra-1,3,5(10)-triene-3,17β-diol]: in data set [6], the half-maximal inhibitory concentration (IC50) was greater than 40 µM. For the same molecule, the “Cytotoxicity (MGM μM)” value in data set [7] was 50.1 µM.
Regarding `CCOc1cc2c(cc1O)CC(=NNS(=O)(=O)c1ccc(C)cc1)CC1C2CCC2(C)C(O)CCC12` (stereo not drawn) [Compound 10, B-Homo-2-ethoxy-3,17β-dihydroxyestra-1,3,5(10)-triene-7-one toluenesulfonyl-hydrazone], the half-inhibitory concentration (IC50) in data set [6] was greater than 40 µM.
As for `CCOc1cc2c(cc1OC(C)=O)C(=O)CCC1C2CCC2(C)C(O)CCC12` (stereo not drawn) [Compound 19, B-Homo-3-Acetoxy-2-ethoxy-17β-hydroxyestra-1,3,5(10)-trien-6-one], the “Effect on glutamate- and MAP-induced tubulin assembly” value in data set [1] was “inactive”. The molecule also registered a concentration for half-maximal inhibition (IC50) in data set [6] greater than 40 µM.
With `CCOc1cc2c(cc1OC(C)=O)N(C(C)=O)CCC1C2CCC2(C)C(OC(C)=O)CCC12` (stereo not drawn) [Compound 31, B-Homo-6-acetyl-6-aza-3,17β-diacetoxy-2-ethoxyestra-1,3,5(10)-triene], in data set [6], the 50% inhibitory concentration (IC50) was greater than 40 µM. Besides, the “Cytotoxicity (MGM μM)” value in data set [7] was 38.0 µM.
As to `CCOc1cc2c(cc1O)C(=O)CCC1C2CCC2(C)C(O)CCC12` (stereo not drawn) [Compound 14, B-Homo-2-ethoxy-6-oxoestra-1,3,5(10)-trien-3,17β-diol], in data set [1], the “Effect on glutamate- and MAP-induced tubulin assembly” value was “inactive”. In addition, the IC50 in data set [6] was greater than 40 µM.
As to `CCOc1cc2c(cc1O)NCCC1C2CCC2(C)C(O)CCC12` (stereo not drawn) [Compound 30, B-Homo-6-aza-2-ethoxyestra-1,3,5(10)-triene-3,17β-diol], in data set [6], the half-inhibitory concentration (IC50) is greater than 40 µM. Moreover, the “Cytotoxicity (MGM μM)” value in data set [7] was 49.0 µM.
Regarding `CCOc1cc2c(cc1O)NC(=O)CC1C2CCC2(C)C(O)CCC12` (stereo not drawn) [Compound 29, B-Homo-6-aza-2-ethoxy-3,17β-dihydroxyestra-1,3,5(10)-trien-7-one], the melting point is 222 to 223 °C. Further, in data set [6], the “Effect on tubulin polymerization / microtubule assembly” value is “inhibit tubulin polymerization” and the 50% inhibitory concentration (IC50) was 4 µM. The “Cytotoxicity (MGM μM)” value in data set [7] was found to be 16.2 µM.
The matching figures for `CCOc1cc2c(cc1O)N(C(C)=O)CCC1C2CCC2(C)C(O)CCC12` (stereo not drawn) [Compound 32, B-Homo-6-acetyl-6-aza-2-ethoxyestra-1,3,5(10)-triene-3,17β-diol]: 189 to 191 °C, “inhibit tubulin polymerization”, 25 µM and 35.5 µM.
Regarding `CCOc1cc2c(cc1O)C(=NO)C[C@@H]1[C@@H]2CC[C@]2(C)[C@@H](OC(C)=O)CC[C@@H]12` [Compound 27, 17β-Acetoxy-2-ethoxy-6-hydroximinoestra-1,3,5(10)-triene-3-ol], the melting point lay in the range of 226 to 227 °C. Further, in data set [6], the IC50 is greater than 40 µM. Further, in data set [7], the “Cytotoxicity (MGM μM)” value was determined as 0.567 µM.
`CCOc1cc2c(cc1O)CC(=O)CC1C2CCC2(C)C(O)CCC12` (stereo not drawn) [Compound 9, B-Homo-3,170β-dihydroxy-2-ethoxyestra-1,3,5(10)-triene-7-one] displayed a melting point of 210 to 212 °C. In data set [6], this molecule registered an IC50 greater than 40 µM.
The matching figures for `CCOc1cc2c(cc1OC(C)=O)CCCC1C2CCC2(C)C(OC(C)=O)CCC12` (stereo not drawn) [Compound 12, B-Homo-3,17β-diacetoxy-2-ethoxyestra-1,3,5(10)-triene]: 98 to 100 °C and greater than 40 µM.
Take `CCOc1cc2c(cc1O)CCCC1C2CCC2(C)C(O)CCC12` (stereo not drawn) [Compound 11, B-Homo-2-ethoxy-3.17β-estradiol]: the melting point lay in the range of 86 to 88 °C. In addition, in data set [6], the “Effect on tubulin polymerization / microtubule assembly” value was “inhibit tubulin polymerization” and the IC50 is 1.3 µM.
